Measured values from article PMC12668289 (RSC Chemical Biology, 2025).
Several values for one entry are separate records, joined by “and”; a condition that tells them apart may be missing. Identical values can stand only once.

Key:
[1] = test system: Pmluc-N230S; assay: Stability of BL signals (half-time of light emission); format: biochemical, Pyrocoelia miyako; conditions: compared to 2a
Procedure: (§1) 1.5 Bioluminescence characterizations
(§2) Reactions of luciferases, including Photinus pyralis luciferase (Fluc), Phrixothrix hirtus luciferase (SLR), Pyrearinus termitilluminans […]
mM D-LH 2 analogues, 3 mM ATP, 6 mM MgCl2, and 10 µM luciferase in 0.2 ml of 100 mM HEPES-NaOH pH 8.0. The bioluminescence (BL) emission characteristics were recorded using a microplate reader in a BL mode (Thermo Scientific, Varioskan, LUX multimode). A digital single-lens reflex (DSLR) camera (Nikon D80, CCD sensor) with a 30-second exposure period was used to capture the BL images. […]

[2] = test system: Pmluc-N230S; assay: Bioluminescence quantum yield measurement; format: biochemical, Pyrocoelia miyako
Procedure: as §1, §2
(§3) mM D-LH 2 analogues, 3 mM ATP, 6 mM MgCl2, and 10 µM luciferase in 0.2 ml of 100 mM HEPES-NaOH pH 8.0. […]
(§4) A reference light source was used for calibrating a sphere spectrometer equipped with a cooled CCD detector.
(§5) The absolute responsivity of each luciferase-luciferin reaction was calculated based on a linear standardization between total photon flux measured using the sphere spectrometer equipped with a cooled CCD detector and relative count values measured by a luminometer. Total photons emitted from the bioluminescence reaction of each luciferase-luciferin pair were measured using a calibrated luminometer. A reaction containing 0.5-5 nM of each luciferin, 3 mM ATP, 3 mM MgCl2 in 100 mM Tris-HCl (total volume of 200 µl) was placed into the luminometer and background signals were recorded. The reaction was then initiated by adding 20 µl of 0.5 […]
(§6) mM purified luciferases into the reaction tube and the bioluminescence signals were monitored until it decayed to the background level.

[3] = test system: Pmluc-N230S (HepG2); assay: Sensitivity of live reporter cell detection (LOD of cell number); format: cell-based, human
[4] = target: T1, Fluc (Photinus pyralis, UniProt P08659); assay: Steady-state kinetics of luciferase reactions (luminometer); format: biochemical; conditions: for Substrate inhibition: concentration range tested 0-300; for appKm: pH 8.0, 25 °C
T1 sequence (P08659 whole entry): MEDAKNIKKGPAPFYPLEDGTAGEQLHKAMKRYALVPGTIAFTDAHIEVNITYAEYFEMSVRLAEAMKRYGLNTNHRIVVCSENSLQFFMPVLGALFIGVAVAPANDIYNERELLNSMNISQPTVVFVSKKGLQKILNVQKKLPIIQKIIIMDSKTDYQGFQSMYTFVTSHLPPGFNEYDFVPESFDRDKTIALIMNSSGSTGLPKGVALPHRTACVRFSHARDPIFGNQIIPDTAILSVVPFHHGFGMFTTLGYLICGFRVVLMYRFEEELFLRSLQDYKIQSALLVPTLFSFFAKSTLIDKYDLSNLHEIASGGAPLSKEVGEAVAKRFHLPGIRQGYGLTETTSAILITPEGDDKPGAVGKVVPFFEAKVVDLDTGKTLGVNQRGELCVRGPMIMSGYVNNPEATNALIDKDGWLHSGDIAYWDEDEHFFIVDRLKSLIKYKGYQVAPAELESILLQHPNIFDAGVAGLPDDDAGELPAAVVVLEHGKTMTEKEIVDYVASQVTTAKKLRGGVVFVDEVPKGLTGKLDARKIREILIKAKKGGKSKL
Procedure: as §1, §2
(§7) mM D-LH 2 analogues, 3 mM ATP, 6 mM MgCl2, and 10 µM luciferase in 0.2 ml of 100 mM HEPES-NaOH pH 8.0. The bioluminescence (BL) emission characteristics were recorded using a microplate reader in a BL mode (Thermo Scientific, Varioskan, LUX multimode). […]
BL of the
The reactions were initiated by mixing 25 µl of premixed solution of luciferases/D-LH 2 analogues with 125 µl of 3 mM ATP and 6 mM MgCl2 in 100 mM HEPES-NaOH (pH 8.0). The light intensity (relative light unit, RLU) during 0-300 sec was then collected to represent the overall luciferase activity which was further used for calculating kinetic parameters from the Michaelis-Menten equation. […]

[5] = Absorption and fluorescence spectra of luciferins; format: physicochemical; conditions: 100 mM HEPES pH 8.0, 25 °C
Procedure: 2.6 Spectra of firefly luciferins
spectrophotometer (Agilent technologies, Cary 100 UV Vis, Cary Series UV-Vis Spectrophotometer).
were recorded by a microplate reader (Thermo Scientific, Varioskan, LUX multimode) in fluorescence mode. The reactions of D-LH 2 […]
Supplementary Table S5. […]
[e] ND denotes “not detectable”. […]

[6] = test system: stably Fluc-expressing HepG2 cells; assay: Real-time BL monitoring of live cells; format: cell-based, human; conditions: Fluc HepG2, 100 µM; for Time at which the highest BL signals were achieved: monitored for 3 days
[7] = target: T1, Fluc; assay: Stopped-flow luminometry, single turnover light formation and decay; format: biochemical; conditions: for Observed rate constant (kobs) Light decay Faster phase / Observed rate constant (kobs) Light decay Slower phase / Observed rate constant (kobs) Light formation: Fluc single turnover, 25 °C
Procedure: 1.5 Bioluminescence characterizations […]
One syringe was filled with a solution of 50 µM Fluc, 3 mM ATP, and 6 mM
in both syringes were mixed by a stopped-flow device and measured the light emission at 25 °C in triplicate. […]
2.8 Investigation of bioluminescence kinetics using stopped-flow luminometry
reactions were investigated using a stopped-flow spectrophotometer (employing a light-off mode for detecting the luminescence). One

[8] = test system: Fluc (HepG2); assay: Sensitivity of live reporter cell detection (LOD of cell number); format: cell-based, human; conditions: 100 µM, 30 min
[9] = test system: SLR (HepG2); assay: as above; format: cell-based, human
[10] = target: T1, Fluc; assay: BL emission spectra of luciferase-luciferin reactions; format: biochemical; conditions: 100 mM HEPES pH 8.0, 25 °C
Procedure: as §1, §2, §7
(§8) sphere-based multichannel spectrometer with a charge-coupled device (CCD) detector. […]

[11] = target: Fluc-ApCPP complex (Photinus pyralis, UniProt P08659); assay: biochemical; format: binding; conditions: ITC; for Kd / G (free energy of binding) / H (enthalpy of binding): 25 °C; for Kd: preformed Fluc-ApCPP complex, read-out: Dissociation constant (Kd) Fluc-ApCPP: Luciferin; for N site / G (free energy of binding) / H (enthalpy of binding): Fluc-ApCCP
Chain of Fluc-ApCPP complex (P08659 whole entry, one chain of several): as the sequence (P08659 whole entry) above

[12] = test system: Fluc-expressing HeLa cells; assay: Real-time BL monitoring of live cells; conditions: 100 µM
Procedure: (§9) plasmids and Lipofectamine 3000 were then combined and incubated for 30 minutes to allow formation of DNA and lipid complexes.
(§10) The DNA-lipid complexes were added directly to each well of the empty plate. 1.5 × 10⁵ cells (HepG2 and HeLa cells) were then suspended
(§11) in 150 µL of DMEM supplemented with 10% FBS were added directly into the transfection mixture in each well. The plate was gently
(§12) agitated to ensure even distribution and incubated at 37°C in a humidified 5% CO₂ incubator. The reporter cells obtained at this stage
(§13) were ready for further investigation of their bioluminescence with D-LH2 analogues.
(§14) 2c), 10% FBS and 25 mM HEPES-NaOH (pH 7.0) was added and the BL signals were monitored with F0 (no filter) and F2 (red filter, >620
(§15) nm long-pass filter) by a luminometer (ATTO, Kronos HT, WSL-1563) and while maintaining the cells with 5% CO2 at 37 °C.

[13] = test system: SLR-expressing HeLa cells; assay: Real-time BL monitoring of live cells; conditions: SLR-expressing HeLa, 100 µM
Procedure: as §9, §10, §11, §12, §13, §14, §15

[14] = test system: Pmluc-N230S (HeLa); assay: Sensitivity of live reporter cell detection (LOD of cell number); format: cell-based, human; conditions: for Limit of detection (LOD), cells: Pmluc-N230S (HeLa); for Sensitivity higher than that of 2a: Pmluc-N230S expressing HeLa
[15] = test system: Pmluc-WT; assay: BL emission spectra of luciferase-luciferin reactions; format: biochemical, Pyrocoelia miyako; conditions: 100 mM HEPES pH 8.0, 25 °C
Procedure: as §1, §2, §7, §8

[16] = test system: SLR (HeLa); assay: Sensitivity of live reporter cell detection (LOD of cell number); format: cell-based, human
[17] = test system: SLR; assay: BL emission spectra of luciferase-luciferin reactions; format: biochemical, Phrixothrix hirtus; conditions: 100 mM HEPES pH 8.0, 25 °C
Procedure: as §1, §2, §7, §8

[18] = target: T1, Fluc; assay: biochemical; format: binding; conditions: ITC; for G (free energy of binding) / H (enthalpy of binding): 25 °C; for Kd: Table S9
[19] = target: T2, Fluc-containing HEK293T crude lysate (Photinus pyralis, UniProt P08659, K549A/L550V/N119G/N50D/S548I); assay: BL assay of crude lysate of HEK293T expressing Fluc; format: cell-based
T2 construct: expressed in transfected cells; host or cells: HEK293T, transient transfection with pGL4.13 [luc2/SV40]
T2 sequence (P08659 whole entry N50D/N119G/S548I/K549A/L550V): as the sequence (P08659 whole entry) above, with N50D, N119G, S548I, K549A, L550V counted along it

[20] = test system: SLR; assay: Bioluminescence quantum yield measurement; format: biochemical, Phrixothrix hirtus
Procedure: as §1, §2, §3, §4, §5, §6

Compound | BL half-life (t1/2) longer than that of 2a [1] | Quantum yield [2] | Substrate inhibition [4] | appKm [4] | Absorption (λmax) [5] | Fluorescence (λem) [5] | Highest signal obtained at faster rate than that of 2a [6] | Time at which the highest BL signals were achieved [6] | Observed rate constant (kobs) Light decay Faster phase [7] | Observed rate constant (kobs) Light decay Slower phase [7] | Observed rate constant (kobs) Light formation [7] | Limit of detection (LOD), cells ([9]; F0 (no filter)) | Limit of detection (LOD), cells ([9]; F2 (red filter)) | Bioluminescence wavelength (BLλ) [10] | Kd [11] | N site [11] | G (free energy of binding) [11] | H (enthalpy of binding) [11] | Time BL signals increase or are prolonged before decreasing [12] | Time BL signals are prolonged before signal decreasing [13] | also measured
Cc1cc2nc(C3=N[C@@H](C(=O)O)CS3)sc2cc1O [Compound 2b, 5’-methyl-D-luciferin] | about 1.7 fold | 0.17 and 0.170 ± 0.034 | > 10.0 µM | 3.1 µM | 323 nm | 523 nm and 523–560 nm | 1.2 fold | 35 h | 1.55 s⁻¹ and 1.55 ± 0.15 s⁻¹ | 0.27 s⁻¹ and 0.27 ± 0.00 s⁻¹ | 9.63 s⁻¹ and 9.63 ± 0.04 s⁻¹ | 643 cells | 783 cells | 605 nm | 4 ± 0.02 µM | 0.33 | -31.8 kJ/mol | -19.2 kJ/mol | up to 13 h | up to 10 h | Limit of detection (LOD), cells ([3]; F0 (no filter)): 752 cells; Limit of detection (LOD), cells ([3]; F2 (red filter)): 247 cells; Limit of detection (LOD), cells ([8]; F2 (red filter, >620 nm long-pass)): 795 cells; Limit of detection (LOD), cells ([14]; F0 (no filter)): 630 cells; Limit of detection (LOD), cells ([14]; F2 (red filter)): 812 cells; Sensitivity higher than that of 2a ([14]; F0 filter): about 2.3 fold; Sensitivity higher than that of 2a ([14]; F2 filter): ~1.4 fold; Bioluminescence wavelength (BLλ) [15]: 608 nm; Limit of detection (LOD), cells ([16]; F0 (no filter)): 973 cells; Limit of detection (LOD), cells ([16]; F2 (red filter)): 826 cells; Bioluminescence wavelength (BLλ) [17]: 626 nm; N site [18]: 0.70; G (free energy of binding) [18]: -28 kJ/mol; H (enthalpy of binding) [18]: -7.66 kJ/mol; Kd [18]: 13.4 µM; Limit of detection (LOD) of expressed Fluc in crude cell lysates ([19]; HEK293T crude lysate): 4.6 ng; Sensitivity to detect Fluc better than natural D-LH2 (2a) ([19]; HEK293T crude lysate, from LOD): about 11.2 fold; Sensitivity greater than 2a ([19]; HEK293T lysate, varied substrate concentration and lysate amount): about 2 fold; Light intensity greater than 2a ([19]; fixed amount of HEK293T crude lysate, varied concentration): about 2.5 fold; Quantum yield [20]: 0.19 and 0.190 ± 0.005
Cc1cc2nc(C3=N[C@@H](C(=O)O)CS3)sc2c(C)c1O [Compound 2c, 5’,7’-di-methyl-D-luciferin] | ~5.6 fold | 0.15 and 0.150 ± 0.014 | > 12.5 µM | 2.5 µM | 334 nm | 560 nm and 523–560 nm | 7.3 fold | 6 h | 0.27 s⁻¹ and 0.27 ± 0.00 s⁻¹ | 0.05 s⁻¹ and 0.05 ± 0.00 s⁻¹ | 7.28 s⁻¹ and 7.28 ± 0.02 s⁻¹ | 500 cells | 613 cells | 628 nm | 25.3 ± 1.1 µM | 3.34 | -25.1 kJ/mol | -20.3 kJ/mol | up to 13 h | up to 18 h | Relative kcat ([4]; relative to 2a compound): 67.8; kobs of light decay (faster and slower phases) slower than those of 2a and 2b ([7]; Fluc): 5–6 fold; Limit of detection (LOD), cells ([8]; F0 (no filter)): 713 cells; Bioluminescence wavelength (BLλ) [15]: 631 nm; Limit of detection (LOD), cells ([16]; F0 (no filter)): 1437 cells; Limit of detection (LOD), cells ([16]; F2 (red filter)): 707 cells; Bioluminescence wavelength (BLλ) [17]: 634 nm; N site [18]: 0.80; G (free energy of binding) [18]: -25.4 kJ/mol; H (enthalpy of binding) [18]: -13.4 kJ/mol; Kd [18]: 35.1 µM; Quantum yield [20]: 0.16 and 0.160 ± 0.003
